What follows are molecules tested against T1, human FSH receptor (Homo sapiens, UniProt P23945) (assay: HTRF assay for measuring cAMP in cells). Conditions: hFSHR clone 16 cells (CHO cells stably transfected with the human FSH receptor); in the presence of 1e-9 mol/l hFSH; 37° C. for 2 h; read-out: IC50 (FSH-antagonistic effect in the HTRF assay).
T1 construct: expressed in transfected cells; host or cells: CHO cells (hFSHR clone 16)
T1 sequence (P23945 18-695): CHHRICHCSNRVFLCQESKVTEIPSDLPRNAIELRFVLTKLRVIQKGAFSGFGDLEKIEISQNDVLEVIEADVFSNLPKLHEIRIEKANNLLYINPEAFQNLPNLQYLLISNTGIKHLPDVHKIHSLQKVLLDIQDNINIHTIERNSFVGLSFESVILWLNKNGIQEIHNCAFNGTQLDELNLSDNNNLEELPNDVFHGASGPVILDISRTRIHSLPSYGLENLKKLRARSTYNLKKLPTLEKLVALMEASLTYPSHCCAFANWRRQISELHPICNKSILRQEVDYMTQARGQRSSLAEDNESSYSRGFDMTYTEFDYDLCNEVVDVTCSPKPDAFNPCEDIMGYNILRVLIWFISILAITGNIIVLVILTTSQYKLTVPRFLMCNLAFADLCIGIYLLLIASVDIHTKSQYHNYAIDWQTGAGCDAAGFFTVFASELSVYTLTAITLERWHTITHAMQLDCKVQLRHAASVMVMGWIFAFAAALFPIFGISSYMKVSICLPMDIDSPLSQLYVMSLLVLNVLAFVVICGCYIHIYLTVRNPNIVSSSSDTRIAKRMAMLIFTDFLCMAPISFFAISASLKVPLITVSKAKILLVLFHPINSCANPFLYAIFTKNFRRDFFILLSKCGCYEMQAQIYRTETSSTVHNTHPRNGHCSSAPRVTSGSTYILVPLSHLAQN
Type: cell-based
Procedure: HTRF Assay for Measuring cAMP in Cells
The method is based on a competitive immunoassay between native cAMP, which has been produced by the cells, and cAMP which is labelled with XL665. The tracer binding was visualized by a monoclonal antibody, anti-cAMP labelled with cryptate [HTRF=homogeneous time-resolved fluorescence].
The specific signal is inversely proportional to the cAMP concentration of the samples employed.
The 665 nm/620 nm fluorescence ratio was evaluated.
The following material was used: 96-well plates for the tissue culture, 96-well plates with black edge and black base (e.g. Fluotrac 600 from Greiner), 96-well plates for the substance dilutions of polypropylene and cAMP Femtomolar (4000 wells Kit, CIS Bio International # 62AM1PEC).
The following reagents were used: BSA (bovine serum albumin) Fraction V protease-free, IBMX (3-isobutyl-1-methylxanthine), hFSH (human follicle stimulating hormone), Triton X-100 analytical grade, potassium fluoride analytical grade, G 418 (Geneticin) and Accutase.
Buffer 1 (washing and testing buffer) contained PBS, 1 mM CaCl2, 1 mM MgCl2, 0.2% glucose; 0.1% BSA, 1 mM IBMX. Buffer 2 (2× lysis buffer) contained 1% Triton X-100 in PBS (without CaCl2 and MgCl2). Buffer 3 (assay buffer) contained 50 mM potassium phosphate buffer (pH 7.0); 800 mM potassium fluoride; 0.2% BSA (always added fresh).
On day 1, the cells were seeded in 96-well plates (3×10^4 cells per well hFSHR clone 16 cells (CHO cells stably transfected with the human FSH receptor in 150 μl of medium). The next day, test substance dilutions were made up. For this purpose, all the substances were diluted in ice-cold buffer 1 (with or without hFSH), and the substance dilutions were placed on ice until applied to the cells.
The cell supernatant was then aspirated off, and the cells were washed 2× with 200 μl of buffer 1. The cells were treated with 60 μl of the appropriate substance concentrations at 37° C. for 2 h. The cells were then lysed with 60 μl of buffer 2 (put onto the supernatant) (on a plate shaker at RT for 30 min).
The test conjugates (XL-665 and anti-cAMP cryptate) were diluted in buffer 3 in accordance with the manufacturers' information. The actual mixture for measurement was pipetted into a black 96-well plate (in each case 15 μl of the cell lysate diluted with 35 μl of buffer 1; firstly 25 μl of XL-665 conjugate were pipetted and, after 10 min, 25 μl of the anti-cAMP cryptate were added). This is followed by incubation at RT for 90 minutes. The measurement was carried out in a PheraStar (BMG).
Tissue Culture Conditions
1) hFSHr clone 16 Ham's F12 • PSG • 10% FCS • 700 μg/ml G 418 (Geneticin) from PAA.
Dose-effect curve (hFSH) for the human receptor: 1e-8, 3e-9, 1e-9, 3e-10, 1e-10, 3e-11, 1e-11, 3e-12 mol/l.
The test substances were employed in suitable dilutions in the absence (test for agonism) and in the presence of 1e-9 mol/l hFSH.
The values of the well ratio were averaged and then entered directly in SigmaPlot versus the concentrations. The maximum and minimum values were determined for each plate, and half the difference is to be regarded as IC50.

IC50	Structure (SMILES)
600 nM	CC(C)Oc1ccc(C#CC(C)(C)C)cc1C(=O)N[C@@H](CO)Cc1c[nH]c2ccccc12 [Example 3, 5-(3,3-Dimethyl-but-1-ynyl)-N-[(R)-1-hydroxy-methyl-2-(1H-indol-3-yl)-ethyl]-2-isopropoxy-benzamide]
6000 nM	CNC(=O)N(C)CC#Cc1ccc(OC(C)C)c(C(=O)N[C@@H](CO)Cc2c[nH]c3ccccc23)c1 [Example 10, 5-[3-(1,3-Dimethyl-ureido)-prop-1-ynyl]-N-[(R)-1-hydroxymethyl-2-(1H-indol-3-yl)-ethyl]-2-isopropoxy-benzamide]
4500 nM	CC(C)Oc1ccc(C#CCN2CCS(=O)(=O)CC2)cc1C(=O)N[C@@H](CO)Cc1c[nH]c2ccccc12 [Example 5, 5-[3-(1,1-Dioxo-1-lambda*6*-thiomorpho-lin-4-yl)-prop-1-ynyl]-N-[(R)-2-hydroxy-1-(1H-indol-3-ylmethyl)-ethyl]-2-isopropoxy-benzamide]
200 nM	Cc1ccc(NC(=O)NCC#Cc2ccc(OC(C)C)c(C(=O)N[C@@H](CO)Cc3c[nH]c4ccccc34)c2)cc1 [Example 7, N-[(R)-1-Hydroxy-methyl-2-(1H-indol-3-yl)-ethyl]-2-isopropoxy-5-[3-(3-p-tolyl-ureido)-prop-1-ynyl]-benzamide]
500 nM	CC(C)Oc1ccc(C#CCCCO)cc1C(=O)N[C@@H](CO)Cc1c[nH]c2ccccc12 [Example 8, N-[(R)-1-Hydroxy-methyl-2-(1H-indol-3-yl)-ethyl]-5-(5-hydroxy-pent-1-ynyl)-2-iso-propoxy-benzamide]
